In patent US20220009892A1, “SUBSTITUTED PYRIDINE CARBOXYLIC ACIDS, THEIR PREPARATION METHOD AND COMPOSITIONS THEREOF” (INCILIA THERAPEUTICS PRIVATE LIMITED, priority 2018, published 2022):

## COC(=O)c1cc(OC)c(OC(=O)c2cccnc2)c(OC)c1
  melting point: 173 to 175 °C
